Test results from patent US10351575B2, “Bicyclic urea, thiourea, guanidine and cyanoguanidine compounds useful for the treatment of pain” (Array BioPharma Inc., priority 2012, dated 2019).

Experiments:
Experiment in all cases: KinaseProfiler off-target kinase profiling
Type in all cases: biochemical
Details in all cases: 10 μM, ATP near Km
[1] = molecular target: TNK2 (Homo sapiens (Human), UniProt Q07912)
Summary of the method: (§1)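 Compounds were screened at 10 μM in duplicate, with ATP near the Km of each individual kinase. Activity is given as percent of control (POC), averaged over both replicates.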

[2] = molecular target: IGF-1R Activated (Homo sapiens (Human), UniProt P08069)
Summary of the method: as §1

[3] = molecular target: Flt3 (Homo sapiens (Human), UniProt P36888)
Flt3, sequence (P36888 27-993): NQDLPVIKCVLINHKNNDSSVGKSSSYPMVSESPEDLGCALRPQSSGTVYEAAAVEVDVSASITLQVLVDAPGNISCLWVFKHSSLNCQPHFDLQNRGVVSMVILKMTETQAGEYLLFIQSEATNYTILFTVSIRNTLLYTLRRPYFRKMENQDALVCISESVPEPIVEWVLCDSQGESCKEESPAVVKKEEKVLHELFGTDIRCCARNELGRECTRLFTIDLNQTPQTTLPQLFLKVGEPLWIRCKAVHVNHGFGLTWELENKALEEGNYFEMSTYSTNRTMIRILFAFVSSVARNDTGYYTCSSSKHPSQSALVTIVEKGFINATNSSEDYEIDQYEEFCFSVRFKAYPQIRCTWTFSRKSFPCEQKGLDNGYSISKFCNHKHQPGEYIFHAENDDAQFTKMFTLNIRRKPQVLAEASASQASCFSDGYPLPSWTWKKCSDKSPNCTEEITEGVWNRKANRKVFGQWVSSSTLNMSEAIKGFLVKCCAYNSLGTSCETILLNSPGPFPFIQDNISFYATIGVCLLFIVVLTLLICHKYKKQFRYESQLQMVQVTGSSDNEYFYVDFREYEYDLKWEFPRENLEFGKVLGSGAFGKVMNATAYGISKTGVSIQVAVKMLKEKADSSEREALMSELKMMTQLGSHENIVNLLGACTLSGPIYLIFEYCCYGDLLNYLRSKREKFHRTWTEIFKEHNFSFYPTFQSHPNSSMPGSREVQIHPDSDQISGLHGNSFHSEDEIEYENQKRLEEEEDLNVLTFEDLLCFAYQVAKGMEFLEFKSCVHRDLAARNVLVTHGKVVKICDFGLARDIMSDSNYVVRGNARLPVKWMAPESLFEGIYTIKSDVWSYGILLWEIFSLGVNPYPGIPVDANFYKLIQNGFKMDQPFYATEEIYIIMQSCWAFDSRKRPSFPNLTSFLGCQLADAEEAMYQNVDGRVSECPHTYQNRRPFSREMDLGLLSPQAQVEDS
Summary of the method: as §1

[4] = molecular target: NEK7 (Homo sapiens (Human), UniProt Q8TDX7)
Summary of the method: as §1

[5] = molecular target: MKNK2 (Homo sapiens (Human), UniProt Q9HBH9)
Summary of the method: as §1

[6] = molecular target: ALK (Homo sapiens (Human), UniProt Q9UM73)
Summary of the method: as §1

[7] = molecular target: PKD2 (Homo sapiens (Human), UniProt Q9BZL6)
Summary of the method: as §1

[8] = molecular target: CDK2/cyclinE (Homo sapiens (Human), UniProt P24941)
Summary of the method: as §1

[9] = molecular target: NLK (Homo sapiens (Human), UniProt Q9UBE8)
Summary of the method: as §1

[10] = molecular target: FGFR2 (Homo sapiens (Human), UniProt P21802)
Summary of the method: as §1

[11] = molecular target: PDK1 (Homo sapiens (Human), UniProt O15530)
Summary of the method: as §1

[12] = molecular target: MSK1 (Homo sapiens (Human), UniProt O75582)
Summary of the method: as §1

[13] = molecular target: EphA4 (Homo sapiens (Human), UniProt P54764)
Summary of the method: as §1

[14] = molecular target: Lck (Homo sapiens (Human), UniProt P06239)
Summary of the method: as §1

[15] = molecular target: Axl (Homo sapiens (Human), UniProt P30530)
Summary of the method: as §1

[16] = molecular target: IRAK4 (Homo sapiens (Human), UniProt Q9NWZ3)
IRAK4, sequence (Q9NWZ3 whole entry): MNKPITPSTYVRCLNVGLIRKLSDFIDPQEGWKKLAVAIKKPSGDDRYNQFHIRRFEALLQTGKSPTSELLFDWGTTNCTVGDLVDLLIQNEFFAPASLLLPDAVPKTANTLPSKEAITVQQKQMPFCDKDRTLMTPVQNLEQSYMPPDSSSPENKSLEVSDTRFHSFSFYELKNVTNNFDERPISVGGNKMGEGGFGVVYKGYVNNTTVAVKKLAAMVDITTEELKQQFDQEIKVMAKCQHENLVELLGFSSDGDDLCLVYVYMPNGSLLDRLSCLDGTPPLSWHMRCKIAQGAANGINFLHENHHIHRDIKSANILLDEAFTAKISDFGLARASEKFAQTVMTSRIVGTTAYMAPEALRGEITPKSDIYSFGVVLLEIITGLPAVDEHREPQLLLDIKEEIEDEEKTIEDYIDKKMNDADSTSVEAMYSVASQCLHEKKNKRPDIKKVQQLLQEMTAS
Summary of the method: as §1

[17] = molecular target: DDR2 (Homo sapiens (Human), UniProt Q16832)
Summary of the method: as §1

[18] = molecular target: mTOR (Homo sapiens (Human), UniProt P42345)
Summary of the method: as §1

[19] = molecular target: Txk (Homo sapiens (Human), UniProt P42681)
Summary of the method: as §1

[20] = molecular target: CHK1 (Homo sapiens (Human), UniProt O14757)
Summary of the method: as §1

[21] = molecular target: TAO3 (Homo sapiens (Human), UniProt Q9H2K8)
Summary of the method: as §1

[22] = molecular target: PASK (Homo sapiens (Human), UniProt Q96RG2)
Summary of the method: as §1

[23] = molecular target: PAK2 (Homo sapiens (Human), UniProt Q13177)
PAK2, sequence (Q13177 whole entry): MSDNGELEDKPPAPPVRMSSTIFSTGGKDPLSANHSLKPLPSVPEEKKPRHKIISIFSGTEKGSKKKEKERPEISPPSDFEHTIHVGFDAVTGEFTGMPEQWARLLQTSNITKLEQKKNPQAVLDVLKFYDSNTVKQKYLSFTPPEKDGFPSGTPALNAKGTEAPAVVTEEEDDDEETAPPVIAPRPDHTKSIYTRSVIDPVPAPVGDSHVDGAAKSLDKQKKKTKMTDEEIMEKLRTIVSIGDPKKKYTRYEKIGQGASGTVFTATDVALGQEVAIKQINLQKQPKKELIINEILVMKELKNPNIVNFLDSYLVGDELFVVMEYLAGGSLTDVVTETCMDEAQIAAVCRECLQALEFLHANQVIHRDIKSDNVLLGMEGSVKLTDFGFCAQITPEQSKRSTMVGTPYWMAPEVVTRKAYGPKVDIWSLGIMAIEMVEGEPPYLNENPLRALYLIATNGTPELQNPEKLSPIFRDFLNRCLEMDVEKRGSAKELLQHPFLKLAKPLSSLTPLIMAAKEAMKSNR
Summary of the method: as §1

[24] = molecular target: IGF-1R (Homo sapiens (Human), UniProt P08069)
Summary of the method: as §1

[25] = molecular target: CAMK1d (Homo sapiens (Human), UniProt Q8IU85)
CAMK1d, sequence (Q8IU85 whole entry): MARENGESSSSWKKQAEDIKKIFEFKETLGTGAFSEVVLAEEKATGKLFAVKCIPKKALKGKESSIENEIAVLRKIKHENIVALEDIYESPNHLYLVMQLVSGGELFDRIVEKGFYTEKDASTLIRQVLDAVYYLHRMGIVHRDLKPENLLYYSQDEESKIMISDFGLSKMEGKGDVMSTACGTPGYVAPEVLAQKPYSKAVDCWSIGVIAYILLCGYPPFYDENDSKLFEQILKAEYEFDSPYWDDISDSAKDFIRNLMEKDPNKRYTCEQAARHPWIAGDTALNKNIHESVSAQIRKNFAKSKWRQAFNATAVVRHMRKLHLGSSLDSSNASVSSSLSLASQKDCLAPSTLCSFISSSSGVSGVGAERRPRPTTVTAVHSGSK
Summary of the method: as §1

[26] = molecular target: PKAC-alpha (Homo sapiens (Human), UniProt P17612)
Summary of the method: as §1

[27] = molecular target: EphB2 (Homo sapiens (Human), UniProt P29323)
Summary of the method: as §1

[28] = molecular target: JNK1alpha1 (Homo sapiens (Human), UniProt P45983)
Summary of the method: as §1

[29] = molecular target: MKK6 (Homo sapiens (Human), UniProt P52564)
Summary of the method: as §1

[30] = molecular target: JAK3 (Homo sapiens (Human), UniProt P52333)
JAK3, sequence (P52333 whole entry): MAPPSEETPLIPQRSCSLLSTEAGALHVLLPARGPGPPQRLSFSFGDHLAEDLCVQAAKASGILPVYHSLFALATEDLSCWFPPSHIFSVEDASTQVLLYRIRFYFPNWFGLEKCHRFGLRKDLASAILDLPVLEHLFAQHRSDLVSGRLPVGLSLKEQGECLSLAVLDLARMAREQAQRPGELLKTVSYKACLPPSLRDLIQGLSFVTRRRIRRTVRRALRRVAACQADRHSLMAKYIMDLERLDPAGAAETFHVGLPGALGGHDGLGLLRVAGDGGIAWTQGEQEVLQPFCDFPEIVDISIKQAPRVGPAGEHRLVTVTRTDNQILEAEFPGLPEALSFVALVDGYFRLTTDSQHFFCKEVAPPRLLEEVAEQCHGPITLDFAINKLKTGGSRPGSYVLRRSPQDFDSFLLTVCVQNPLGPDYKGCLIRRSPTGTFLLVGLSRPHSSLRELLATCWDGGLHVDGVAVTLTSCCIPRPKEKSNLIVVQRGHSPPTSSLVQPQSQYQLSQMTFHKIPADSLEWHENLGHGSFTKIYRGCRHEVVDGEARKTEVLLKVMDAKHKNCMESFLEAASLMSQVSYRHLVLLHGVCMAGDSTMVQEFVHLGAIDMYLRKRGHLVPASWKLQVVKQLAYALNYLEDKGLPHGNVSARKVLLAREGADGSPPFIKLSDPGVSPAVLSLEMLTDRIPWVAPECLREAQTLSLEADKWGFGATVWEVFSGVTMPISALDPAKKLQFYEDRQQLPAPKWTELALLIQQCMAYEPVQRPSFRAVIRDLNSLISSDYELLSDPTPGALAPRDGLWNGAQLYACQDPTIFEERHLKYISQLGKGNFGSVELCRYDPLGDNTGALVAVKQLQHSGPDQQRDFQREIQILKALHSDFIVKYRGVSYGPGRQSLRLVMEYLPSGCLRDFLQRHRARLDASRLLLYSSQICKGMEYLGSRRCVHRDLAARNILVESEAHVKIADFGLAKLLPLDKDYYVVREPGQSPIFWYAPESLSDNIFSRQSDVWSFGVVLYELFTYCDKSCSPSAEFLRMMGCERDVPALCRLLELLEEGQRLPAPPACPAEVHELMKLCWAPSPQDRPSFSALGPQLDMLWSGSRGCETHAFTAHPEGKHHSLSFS
Summary of the method: as §1

[31] = molecular target: TSSK2 (Homo sapiens (Human), UniProt Q96PF2)
TSSK2, sequence (Q96PF2 whole entry): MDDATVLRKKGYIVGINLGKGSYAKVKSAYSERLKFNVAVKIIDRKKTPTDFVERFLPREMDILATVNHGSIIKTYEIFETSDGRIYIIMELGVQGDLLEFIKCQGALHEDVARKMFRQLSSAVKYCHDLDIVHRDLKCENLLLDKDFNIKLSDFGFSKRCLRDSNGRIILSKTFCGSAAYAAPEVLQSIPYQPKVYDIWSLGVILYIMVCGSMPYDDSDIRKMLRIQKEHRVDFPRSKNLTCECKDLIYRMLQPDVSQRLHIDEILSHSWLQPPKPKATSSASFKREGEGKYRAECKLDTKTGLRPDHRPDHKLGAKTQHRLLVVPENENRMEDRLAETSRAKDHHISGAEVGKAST
Summary of the method: as §1

[32] = molecular target: Mer (Homo sapiens (Human), UniProt Q12866)
Summary of the method: as §1

[33] = molecular target: ERK2 (Homo sapiens (Human), UniProt P28482)
Summary of the method: as §1

[34] = molecular target: TEC Activated (Homo sapiens (Human), UniProt P42680)
TEC Activated, sequence (P42680 whole entry): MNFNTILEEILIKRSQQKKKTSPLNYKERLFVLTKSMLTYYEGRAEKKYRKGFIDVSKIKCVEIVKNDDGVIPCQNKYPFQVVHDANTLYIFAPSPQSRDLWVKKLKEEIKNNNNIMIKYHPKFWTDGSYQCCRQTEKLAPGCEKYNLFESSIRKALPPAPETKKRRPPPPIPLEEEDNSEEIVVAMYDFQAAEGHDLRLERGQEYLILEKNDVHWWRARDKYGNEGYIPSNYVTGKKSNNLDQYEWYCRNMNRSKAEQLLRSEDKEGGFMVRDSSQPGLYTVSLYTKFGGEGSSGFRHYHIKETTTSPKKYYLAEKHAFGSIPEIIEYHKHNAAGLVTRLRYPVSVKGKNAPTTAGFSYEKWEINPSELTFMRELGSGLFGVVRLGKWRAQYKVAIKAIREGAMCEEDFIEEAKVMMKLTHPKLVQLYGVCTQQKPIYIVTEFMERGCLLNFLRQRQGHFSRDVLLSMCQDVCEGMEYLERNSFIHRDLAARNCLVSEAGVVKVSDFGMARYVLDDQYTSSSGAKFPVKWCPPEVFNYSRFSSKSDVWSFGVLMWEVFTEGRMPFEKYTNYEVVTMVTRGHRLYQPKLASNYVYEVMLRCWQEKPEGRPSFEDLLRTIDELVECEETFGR
Summary of the method: as §1

[35] = molecular target: EphB4 (Homo sapiens (Human), UniProt P54760)
Summary of the method: as §1

[36] = molecular target: Ron (Homo sapiens (Human), UniProt Q04912)
Summary of the method: as §1

[37] = molecular target: Lyn (Homo sapiens (Human), UniProt P07948)
Lyn, sequence (P07948 whole entry): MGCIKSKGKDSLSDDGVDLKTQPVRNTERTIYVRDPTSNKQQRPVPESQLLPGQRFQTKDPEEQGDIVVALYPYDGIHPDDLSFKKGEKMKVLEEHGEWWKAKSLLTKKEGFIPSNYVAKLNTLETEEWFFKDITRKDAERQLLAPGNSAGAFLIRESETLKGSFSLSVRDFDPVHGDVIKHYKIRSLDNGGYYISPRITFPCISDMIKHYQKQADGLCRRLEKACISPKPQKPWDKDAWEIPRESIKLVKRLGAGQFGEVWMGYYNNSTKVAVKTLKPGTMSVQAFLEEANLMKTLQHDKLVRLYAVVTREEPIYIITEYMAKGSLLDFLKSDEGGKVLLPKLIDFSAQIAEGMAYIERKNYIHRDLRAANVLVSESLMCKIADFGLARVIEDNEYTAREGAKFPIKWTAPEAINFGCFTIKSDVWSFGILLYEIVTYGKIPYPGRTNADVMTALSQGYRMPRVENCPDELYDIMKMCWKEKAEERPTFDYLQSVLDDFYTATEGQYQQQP
Summary of the method: as §1

[38] = molecular target: PRKG1alpha (Homo sapiens (Human), UniProt Q13976)
Summary of the method: as §1

[39] = molecular target: DRAK1 (Homo sapiens (Human), UniProt Q9UEE5)
Summary of the method: as §1

Compound	Avg. POC [1] [POC]	Avg. POC [2] [POC]	Avg. POC [3] [POC]	Avg. POC [4] [POC]	Avg. POC [5] [POC]	Avg. POC [6] [POC]	Avg. POC [7] [POC]	Avg. POC [8] [POC]	Avg. POC [9] [POC]	Avg. POC [10] [POC]	Avg. POC [11] [POC]	Avg. POC [12] [POC]	Avg. POC [13] [POC]	Avg. POC [14] [POC]	Avg. POC [15] [POC]	Avg. POC [16] [POC]	Avg. POC [17] [POC]	Avg. POC [18] [POC]	Avg. POC [19] [POC]	Avg. POC [20] [POC]	other results
Cc1c(-c2cnn(C)c2)nn(-c2ccccc2)c1NC(=O)N[C@H]1CCCc2ccccc21 [Example 2, (S)-1-(1′,4-dimethyl-1-phenyl-1H,1′H-3,4′-bipyrazol-5-yl)-3-(1,2,3,4-tetrahydronaphthalen-1-yl)urea]	100.5	95	96.5	94.5	106.5	111	102	116.5	111	112.5	120.5	113.5	111.5	97.5	113.5	125.5	113	116	125	106.5	Avg. POC [21]: 111 POC; Avg. POC [22]: 143 POC; Avg. POC [23]: 104 POC; Avg. POC [24]: 18 POC; Avg. POC [25]: 127 POC; Avg. POC [26]: 138.5 POC; Avg. POC [27]: 125 POC; Avg. POC [28]: 94 POC; Avg. POC [29]: 130 POC; Avg. POC [30]: 142.5 POC; Avg. POC [31]: 118.5 POC; Avg. POC [32]: 109.5 POC; Avg. POC [33]: 112.5 POC; Avg. POC [34]: 153 POC; Avg. POC [35]: 118.5 POC; Avg. POC [36]: 106.5 POC; Avg. POC [37]: 115 POC; Avg. POC [38]: 127.5 POC; Avg. POC [39]: 108.5 POC
Cc1c(-c2cnn(C)c2)nn(-c2ccccc2)c1NC(=O)NC1CCOc2cc(F)ccc21 (stereo not drawn) [Example 12, 1-(1′,4-dimethyl-1-phenyl-1H,1′H-[3,4′-bipyrazol]-5-yl)-3-(7-fluorochroman-4-yl)urea]	117.5	102.5	90	133.5	103.5	103	94	96.5	115.5	114	105.5	127.5	114.5	92	106	95.5	107	104.5	139	99.5	Avg. POC [21]: 99 POC; Avg. POC [22]: 125.5 POC; Avg. POC [23]: 97 POC; Avg. POC [24]: 80 POC; Avg. POC [25]: 137 POC; Avg. POC [26]: 120.5 POC; Avg. POC [27]: 112 POC; Avg. POC [28]: 109.5 POC; Avg. POC [29]: 123 POC; Avg. POC [30]: 112 POC; Avg. POC [31]: 139 POC; Avg. POC [32]: 98 POC; Avg. POC [33]: 106.5 POC; Avg. POC [34]: 122.5 POC; Avg. POC [35]: 121 POC; Avg. POC [36]: 116.5 POC; Avg. POC [37]: 104.5 POC; Avg. POC [38]: 89.5 POC; Avg. POC [39]: 114 POC
Cc1c(-c2ccc(=O)n(C)c2)nn(-c2ccccc2)c1NC(=O)NC1CN(CC(F)(F)F)Cc2ccccc21 (stereo not drawn) [Example 26, 1-(4-methyl-3-(1-methyl-6-oxo-1,6-dihydropyridin-3-yl)-1-phenyl-1H-pyrazol-5-yl)-3-(2-(2,2,2-trifluoroethyl)-1,2,3,4-tetrahydroisoquinolin-4-yl)urea]	123	98	97.5	126	99.5	117	102	97.5	100.5	112	115	114	110	96.5	107	102	111	102.5	119	70.5	Avg. POC [21]: 109 POC; Avg. POC [22]: 124.5 POC; Avg. POC [23]: 99.5 POC; Avg. POC [24]: 60.5 POC; Avg. POC [25]: 97 POC; Avg. POC [26]: 116 POC; Avg. POC [27]: 109.5 POC; Avg. POC [28]: 112 POC; Avg. POC [29]: 121.5 POC; Avg. POC [30]: 112 POC; Avg. POC [31]: 128 POC; Avg. POC [32]: 98 POC; Avg. POC [33]: 107.5 POC; Avg. POC [34]: 113.5 POC; Avg. POC [35]: 115 POC; Avg. POC [36]: 101 POC; Avg. POC [37]: 110.5 POC; Avg. POC [38]: 98 POC; Avg. POC [39]: 125 POC
